From patent US10004701B2, “Methods and compositions for treating infection” (UNIVERSITY OF ROCHESTER, priority 2012, dated 2018)
Where a name gives a salt, the structure may show the parent alone. Read-outs that look alike come from different tables or passages of the source.

Legend:
Test in all cases: AK assay 384-well format, Prestwick library screening
K. pneumoniae = assay type: cell-based, Klebsiella pneumoniae; conditions: Klebsiella pneumoniae, 3 h, 50 μM final drug concentration
[1] = tested on: A. baumannii strain 98-37-09; assay type: cell-based, Acinetobacter baumannii; conditions: Acinetobacter baumannii, 983709, 3 h, 50 μM final drug concentration
E. coli = assay type: cell-based, Escherichia coli; conditions: Escherichia coli, 3 h, 50 μM final drug concentration
E. faecium = assay type: cell-based, Enterococcus faecium; conditions: Enterococcus faecium, 3 h, 50 μM final drug concentration
[2] = tested on: S. aureus strain USA300-0114; assay type: cell-based, Staphylococcus aureus; conditions: Staphylococcus aureus, USA300, 3 h, 50 μM final drug concentration
E. cloacae = assay type: cell-based, Enterobacter cloacae; conditions: Enterobacter cloacae, 3 h, 50 μM final drug concentration
P. aeruginosa = assay type: cell-based, Pseudomonas aeruginosa; conditions: Pseudomonas aeruginosa, 3 h, 50 μM final drug concentration
[3] = planktonic K. pneumoniae, positive cutoff 3-fold increase, read-out: AK-based Prestwick library screening result, K. pneumoniae (fold increase in extracellular AK activity)
[4] = planktonic A. baumannii, positive cutoff 3-fold increase, read-out: AK-based Prestwick library screening result, A. baumannii (fold increase in extracellular AK activity)
[5] = planktonic E. coli, positive cutoff 3-fold increase, read-out: AK-based Prestwick library screening result, E. coli (fold increase in extracellular AK activity)
[6] = planktonic E. faecium, positive cutoff 3-fold increase, read-out: AK-based Prestwick library screening result, E. faecium (fold increase in extracellular AK activity)
[7] = planktonic S. aureus, positive cutoff 3-fold increase, read-out: AK-based Prestwick library screening result, S. aureus (fold increase in extracellular AK activity)
[8] = planktonic E. cloacae, positive cutoff 3-fold increase, read-out: AK-based Prestwick library screening result, E. cloacae (fold increase in extracellular AK activity)
[9] = planktonic P. aeruginosa, positive cutoff 3-fold increase, read-out: AK-based Prestwick library screening result, P. aeruginosa (fold increase in extracellular AK activity)
[10] = planktonic K. pneumoniae, 384-well, cutoff for positive-scoring molecules 3-fold increase, read-out: AK-based Prestwick Library Screening Results: K. pneumoniae (increase in extracellular AK activity)
[11] = planktonic A. baumannii, 384-well, cutoff for positive-scoring molecules 3-fold increase, read-out: AK-based Prestwick Library Screening Results: A. baumannii (increase in extracellular AK activity)
[12] = planktonic E. coli, 384-well, cutoff for positive-scoring molecules 3-fold increase, read-out: AK-based Prestwick Library Screening Results: E. coli (increase in extracellular AK activity)
[13] = planktonic E. faecium, 384-well, cutoff for positive-scoring molecules 3-fold increase, read-out: AK-based Prestwick Library Screening Results: E. faecium (increase in extracellular AK activity)
[14] = planktonic S. aureus, 384-well, cutoff for positive-scoring molecules 3-fold increase, read-out: AK-based Prestwick Library Screening Results: S. aureus (increase in extracellular AK activity)
[15] = planktonic E. cloacae, 384-well, cutoff for positive-scoring molecules 3-fold increase, read-out: AK-based Prestwick Library Screening Results: E. cloacae (increase in extracellular AK activity)
[16] = planktonic P. aeruginosa, 384-well, cutoff for positive-scoring molecules 3-fold increase, read-out: AK-based Prestwick Library Screening Results: P. aeruginosa (increase in extracellular AK activity)

`CN[C@@H]1[C@@H](O[C@H]2O[C@H](CO)[C@@H](N)[C@H](O)[C@H]2O)OC2C[C@@H](N)[C@@H](O[C@H]3[C@H](O)[C@@H](O)[C@H](N)C[C@@H]3N)OC2[C@@H]1O` (stereo partly drawn) [Apramycin] was tested, and the fold induction at 50 µM (K. pneumoniae; [3]) was 0.8, the fold induction at 50 µM [1, 4] was 1 and the fold induction at 50 µM (E. coli; [5]) was 1.2. The fold induction at 50 µM (E. faecium; [6]) was 1, the fold induction at 50 µM [2, 7] was 0.9 and the fold induction at 50 µM (E. cloacae; [8]) was 1.4. The fold induction at 50 µM (P. aeruginosa; [9]) was 1.1.

With `OC[C@H]1O[C@@H](Oc2ccc(O)cc2)[C@H](O)[C@@H](O)[C@@H]1O` [Arbutin] the fold induction at 50 µM (K. pneumoniae; [3]) was 1.2, the fold induction at 50 µM [1, 4] was 1.5 and the fold induction at 50 µM (E. coli; [5]) was 1.2. For the same compound, the fold induction at 50 µM (E. faecium; [6]) was 0.9, the fold induction at 50 µM [2, 7] was 1.1 and the fold induction at 50 µM (E. cloacae; [8]) was 1.4. It also gave a fold induction at 50 µM (P. aeruginosa; [9]) of 1.1.

Compound `NC(N)=NCCCCN=C(N)N` [Arcaine sulfate] has a fold induction at 50 µM (K. pneumoniae; cutoff for positive-scoring molecules 3-fold increase, read-out: AK-based Prestwick Library Screening Results, K. pneumoniae (fold increase in extracellular AK activity)) of 0.7, a fold induction at 50 µM ([1]; cutoff for positive-scoring molecules 3-fold increase, read-out: AK-based Prestwick Library Screening Results, A. baumannii (fold increase in extracellular AK activity)) of 0.8 and a fold induction at 50 µM (E. coli; cutoff for positive-scoring molecules 3-fold increase, read-out: AK-based Prestwick Library Screening Results, E. coli (fold increase in extracellular AK activity)) of 0.7. For the same compound, the fold induction at 50 µM (E. faecium; cutoff for positive-scoring molecules 3-fold increase, read-out: AK-based Prestwick Library Screening Results, E. faecium (fold increase in extracellular AK activity)) was 0.6, the fold induction at 50 µM ([2]; cutoff for positive-scoring molecules 3-fold increase, read-out: AK-based Prestwick Library Screening Results, S. aureus (fold increase in extracellular AK activity)) was 0.9 and the fold induction at 50 µM (E. cloacae; cutoff for positive-scoring molecules 3-fold increase, read-out: AK-based Prestwick Library Screening Results, E. cloacae (fold increase in extracellular AK activity)) was 1.2. The fold induction at 50 µM (P. aeruginosa; cutoff for positive-scoring molecules 3-fold increase, read-out: AK-based Prestwick Library Screening Results, P. aeruginosa (fold increase in extracellular AK activity)) was 0.8.

With `COC(=O)C1=CCCN(C)C1` [Arecoline hydrobromide] the fold induction at 50 µM (K. pneumoniae; planktonic K. pneumoniae, 384-well, […], read-out: AK-based Prestwick Library Screening Results: K. pneumoniae (increase in extracellular AK activity)) was 0.4, the fold induction at 50 µM ([1]; planktonic A. baumannii, 384-well, […], read-out: AK-based Prestwick Library Screening Results: A. baumannii (increase in extracellular AK activity)) was 0.4 and the fold induction at 50 µM (E. coli; planktonic E. coli, 384-well, […], read-out: AK-based Prestwick Library Screening Results: E. coli (increase in extracellular AK activity)) was 0.4. The fold induction at 50 µM (E. faecium; planktonic E. faecium, 384-well, […], read-out: AK-based Prestwick Library Screening Results: E. faecium (increase in extracellular AK activity)) was 0.9, the fold induction at 50 µM ([2]; planktonic S. aureus, 384-well, […], read-out: AK-based Prestwick Library Screening Results: S. aureus (increase in extracellular AK activity)) was 0.4 and the fold induction at 50 µM (E. cloacae; planktonic E. cloacae, 384-well, […], read-out: AK-based Prestwick Library Screening Results: E. cloacae (increase in extracellular AK activity)) was 0.3. The fold induction at 50 µM (P. aeruginosa; planktonic P. aeruginosa, 384-well, […], read-out: AK-based Prestwick Library Screening Results: P. aeruginosa (increase in extracellular AK activity)) was 0.4.

With `C[C@@H]1CC[C@H]2[C@@H](C)C(=O)O[C@@H]3O[C@@]4(C)CC[C@@H]1[C@]32OO4` [Artemisinin] the fold induction at 50 µM (K. pneumoniae; planktonic K. pneumoniae, cutoff for positive-scoring molecules 3-fold increase, read-out: AK-based Prestwick Library Screening Results, K. pneumoniae (increase in extracellular AK activity)) was 0.6, the fold induction at 50 µM ([1]; planktonic A. baumannii, cutoff for positive-scoring molecules 3-fold increase, read-out: AK-based Prestwick Library Screening Results, A. baumannii (increase in extracellular AK activity)) was 0.7 and the fold induction at 50 µM (E. coli; planktonic E. coli, cutoff for positive-scoring molecules 3-fold increase, read-out: AK-based Prestwick Library Screening Results, E. coli (increase in extracellular AK activity)) was 0.5. For the same compound, the fold induction at 50 µM (E. faecium; planktonic E. faecium, cutoff for positive-scoring molecules 3-fold increase, read-out: AK-based Prestwick Library Screening Results, E. faecium (increase in extracellular AK activity)) was 0.9, the fold induction at 50 µM ([2]; planktonic S. aureus, cutoff for positive-scoring molecules 3-fold increase, read-out: AK-based Prestwick Library Screening Results, S. aureus (increase in extracellular AK activity)) was 0.5 and the fold induction at 50 µM (E. cloacae; planktonic E. cloacae, cutoff for positive-scoring molecules 3-fold increase, read-out: AK-based Prestwick Library Screening Results, E. cloacae (increase in extracellular AK activity)) was 0.7. For the same compound, the fold induction at 50 µM (P. aeruginosa; planktonic P. aeruginosa, cutoff for positive-scoring molecules 3-fold increase, read-out: AK-based Prestwick Library Screening Results, P. aeruginosa (increase in extracellular AK activity)) was 0.6.

`CCCNC(C)C(=O)Nc1c(C)csc1C(=O)OC` (stereo not drawn) [Articaine hydrochloride] gave a fold induction at 50 µM (K. pneumoniae; [3]) of 1.1, a fold induction at 50 µM [1, 4] of 1.2 and a fold induction at 50 µM (E. coli; [5]) of 1.1. It also gave a fold induction at 50 µM (E. faecium; [6]) of 1.2, a fold induction at 50 µM [2, 7] of 1.1 and a fold induction at 50 µM (E. cloacae; [8]) of 1.6. The fold induction at 50 µM (P. aeruginosa; [9]) was 1.

`O=C1O[C@H]([C@@H](O)CO)C(O)=C1O` [Ascorbic acid] showed a fold induction at 50 µM (K. pneumoniae; [10]) of 0.5, a fold induction at 50 µM [1, 11] of 0.4 and a fold induction at 50 µM (E. coli; [12]) of 0.5. For the same compound, the fold induction at 50 µM (E. faecium; [13]) was 0.9, the fold induction at 50 µM [2, 14] was 0.4 and the fold induction at 50 µM (E. cloacae; [15]) was 0.4. For the same compound, the fold induction at 50 µM (P. aeruginosa; [16]) was 0.3.

`COc1ccc(CCN2CCC(Nc3nc4ccccc4n3Cc3ccc(F)cc3)CC2)cc1` [Astemizole] gave a fold induction at 50 µM (K. pneumoniae; [10]) of 1.1, a fold induction at 50 µM [1, 11] of 1.6 and a fold induction at 50 µM (E. coli; [12]) of 1.3. The fold induction at 50 µM (E. faecium; [13]) was 1, the fold induction at 50 µM [2, 14] was 2.2 and the fold induction at 50 µM (E. cloacae; [15]) was 1.6. For the same compound, the fold induction at 50 µM (P. aeruginosa; [16]) was 1.

`O=C1C(O)=C([C@H]2CC[C@H](c3ccc(Cl)cc3)CC2)C(=O)c2ccccc21` [Atovaquone] gave a fold induction at 50 µM (K. pneumoniae; planktonic, cutoff for positive 3-fold increase, read-out: AK-based Prestwick Library Screening Results, K. pneumoniae (fold increase in extracellular AK activity)) of 0.8, a fold induction at 50 µM ([1]; planktonic, cutoff for positive 3-fold increase, read-out: AK-based Prestwick Library Screening Results, A. baumannii (fold increase in extracellular AK activity)) of 1.2 and a fold induction at 50 µM (E. coli; planktonic, cutoff for positive 3-fold increase, read-out: AK-based Prestwick Library Screening Results, E. coli (fold increase in extracellular AK activity)) of 1.1. For the same compound, the fold induction at 50 µM (E. faecium; planktonic, cutoff for positive 3-fold increase, read-out: AK-based Prestwick Library Screening Results, E. faecium (fold increase in extracellular AK activity)) was 1, the fold induction at 50 µM ([2]; planktonic, cutoff for positive 3-fold increase, read-out: AK-based Prestwick Library Screening Results, S. aureus (fold increase in extracellular AK activity)) was 1.2 and the fold induction at 50 µM (E. cloacae; planktonic, cutoff for positive 3-fold increase, read-out: AK-based Prestwick Library Screening Results, E. cloacae (fold increase in extracellular AK activity)) was 1.4. The fold induction at 50 µM (P. aeruginosa; planktonic, cutoff for positive 3-fold increase, read-out: AK-based Prestwick Library Screening Results, P. aeruginosa (fold increase in extracellular AK activity)) was 1.
